{
  "source": "patent US20240358693A1",
  "about": "“METHODS OF TREATING PAIN” (Aisa Pharma, Inc., priority 2023, published 2024)",
  "tested_on": "participants with SSc-RP",
  "test": "Scleroderma Health Assessment Questionnaire (SHAQ): disability indices and visual analog scales",
  "format": "in vivo, human",
  "settings": "minus = improvement, two weeks of treatment",
  "description": "The standard, validated, patient reported outcome measures tool for SSc patients, the Scleroderma Health Assessment Questionnaire (SHAQ), will be used to assess the participant qualify of life. Details are attached in the Appendix. The participant quality of life will be scored, and a disability index calculated for each questionnaire completed by the patient at Screening and each in-clinic visit. The absolute change in participant quality of life from baseline to the end of each dosing period will be calculated similar to frequency data as before.\nThe SHAQ includes a Raynaud's VAS, which will be reported at screening and each in-clinic visit. The absolute change in Raynaud-VAS, assessed by the participants response to the SHAQ question ‘In the past 7 days, how much have your Raynaud's interfered with your daily activities?’ at baseline and the end of each dosing period will be calculated similar to frequency data as before.\nThe SHAQ is used to calculate a Disability Index to assess the participant qualify of life. The eight categories assessed by the Disability Index are 1) dressing and grooming, 2) arising, 3) eating, 4) walking, 5) hygiene, 6) reach, 7) grip, and 8) common daily activities. For each of these categories, patients report the amount of difficulty they have in performing two or three specific activities.\nThere are four possible responses for the Disability Index questions: • Without any difficulty=0 • With some difficulty=1 • With much difficulty=2 • Unable to do=3. • The highest score reported by the patient for any component question of the eight categories determines the score for that category. • If a component question is left blank or the response is too ambiguous to assign a score, then the score for that category is determined by the remaining completed question(s). • If all component questions are blank or if more than one answer is given, then follow up with the respondent is required. • If the respondent's mark is between the response columns, then move it to the closest one. If it's directly between the two, move it to the higher one.\nEach of the disability items on the SHAQ has a companion aids/devices variable that is used to record what type(s) of assistance, if any, the participant uses for his/her usual activities. These variables (see below) are coded as follows: • 0=No assistance is needed. • 1=A special device is used by the patient in his/her usual activities. • 2=The patient usually needs help from another person. • 3=The patient usually needs BOTH a special device AND help from another person.\nThe scoring variables and scoring rules permit the computation of two disability indices, the Standard Disability Index and the Alternative Disability Index.\nThis question results in a new set of category scores that are computed by adjusting the score for each category, if necessary, based on the patient's use of an aid or device or assistance for that category. If either devices and/or help from another person are checked for a category, the score is set to “2”, unless the score is already “3” (i.e., scores of “0” or “1” are increased to “2”). For example, if the highest score for the dressing category is “1”, and the patient says they use a device for dressing, the computed category score would be “2”. The sum of the computed categories scores is then calculated and divided by the number of categories answered. This gives a score in the 0 to 3 range.\nThe aid and device variables are not used to calculate the alternative disability index; it is calculated by adding the scores for each of the categories and dividing by the number of categories answered. This gives a score in the 0 to 3 range.\nThe standard, validated, patient reported outcome measures tool for SSc patients, the SHAQ, was collected at the time points specified in the study schedules (FIG. 2 and FIGS. 4A and 4B) to assess the participant's quality of life. The SHAQ included a Raynaud's VAS that will also be reported separately.",
  "key": {"[1]": {"settings": "Cilnidipine 20 mg n = 3, with Tadalafil 5 mg n = 4"}},
  "data": [
    {"smiles": "COCCOC(=O)C1=C(C)NC(C)=C(C(=O)OC/C=C/c2ccccc2)C1c1cccc([N+](=O)[O-])c1", "note": "(centres unmarked) [Cilnidipine 20 mg]", "values": [
      {"measurement": "SHAQ Alternative Disability Index, mean % change", "setting": "[1]", "value": "−42", "unit": "%"},
      {"measurement": "SHAQ Breathing Difficulty, mean % change", "setting": "[1]", "value": "−73", "unit": "%"},
      {"measurement": "SHAQ Burden of Fingers Ulcers, mean % change", "setting": "[1]", "value": "−17", "unit": "%"},
      {"measurement": "SHAQ Overall Scleroderma, mean % change", "setting": "[1]", "value": "−63", "unit": "%"},
      {"measurement": "SHAQ Pain, mean % change", "setting": "[1]", "value": "−53", "unit": "%"},
      {"measurement": "SHAQ Raynaud’s Difficulty, mean % change", "setting": "[1]", "value": "−49", "unit": "%"},
      {"measurement": "SHAQ Standard Disability Index, mean % change", "setting": "[1]", "value": "−50", "unit": "%"},
      {"measurement": "SHAQ Intestinal Difficulty, mean % change (pooled, n = 7)", "setting": "pooled, n = 7", "value": "−45% (pooled,"}
    ]}
  ]
}
